Results published in PubChem BioAssay AID2060503 (Molecular Pharmacology Branch, DTP, NCI, 2025).
“And” between values parts separate entries of the source, which are not always exact repeats. Identical values can stand only once.

System: 817829-284-R-J1-PDC complex spheroids, viability
Assay: Anticancer human tumor 817829-284-R-J1-PDC patient-derived colon adenocarcinoma cell line growth inhibition [GQUAD]
Settings: for viability, T/C: stronger effect = lower value
Source text: DNA G-quadruplex Stabilizer Agents in Combinations in Complex Spheroids
A high-throughput screen of multi-cell type tumor spheroids was designed to identify active combinations of DNA G-quadruplex stabilizer agents and targeted small molecules. Complex spheroids include a stromal component modeled by human endothelial cells (HUVEC) and fibroblasts modeled by human mesenchymal stem cells (MSCs). The concentration ranges selected for each drug and investigational agent were based upon clinically achievable concentrations if the clinical Cmax of the agent was known.
Compounds. The drugs and investigational agents: pidnarulex (CX-5461; NSC782164), APTO-253 (NSC789042), BRACO-19 (NSC847499), peposertib (NSC802822), ceralasertib (NSC780249), elimusertib (NSC800525), camonsertib (NSC841442), AZD-1390 (NSC803789), olaparib (NSC753686), talazoparib (NSC767125), ART-558 (NSC835418), sotorasib (NSC818433), MRTX-1133 (NSC836407), SN-38 (NSC673596), topotecan (NSC609699), etoposide (NSC141540), doxorubicin (NSC123127), gemcitabine (NSC613327), 5-fluorouracil (NSC19893), paclitaxel (NSC125973), vemurafenib (NSC761431), panobinostat (NSC761190), R-306465 (JNJ-16241199; NSC773264), adavosertib (NSC754352), TP-3654 (NSC805149), carboplatin (NSC241240), KSQ-4279 (NSC840948), and staurosporine (NSC755774) were obtained from the National Cancer Institute (NCI) Developmental Therapeutics Program Chemical Repository (34). The FDA-approved anticancer drug set is available from the NCI Developmental Therapeutics Program. […] The stock solutions were prepared in dimethyl sulfoxide (DMSO, Sigma-Aldrich, St. Louis, MO, cat. D2650) at 800-fold the tested concentration and stored at -70 degrees C prior to their use. All drugs and investigational agents were tested over a range starting from a high concentration at or near the clinical Cmax and decreasing in half-log increments. If the clinical Cmax for an agent had not been determined, the highest concentration tested was 10 microM.
2.3 Cell Culture. All cells were maintained in an incubator at 37 degrees C and 5% CO2 with 95% humidity. The PDC lines were cultured according to standard operating procedures established by the NCI PDMR. All PDCs were thawed and cultured in Matrigel-coated flasks prepared with a working solution of 1X Ham's F-12 nutrient mix, without supplementation (Invitrogen, cat. 11765054), 100 U/mL penicillin-streptomycin (Invitrogen, cat. 15140122), and 2.5% Matrigel (Corning Inc., cat. 354248) for the first three passages. The 857933-349-R-J2-PDC line was cultured in 6C/Colon 1B media, which includes advanced DMEM/F-12 (Thermo Fisher Scientific, cat. 12634028), 10 mM HEPES (Thermo Fisher Scientific, cat. 15630080), 1X GlutaMAX supplement (Thermo Fisher Scientific, cat. 35050061), 0.1 mg/mL primocin (InvivoGen, cat. ant-pm-2), 10% defined fetal bovine serum, heat inactivated (HyClone Laboratories Inc., cat. SH30070.03HI), 50% L-WRN conditioned media (ATCC, cat. CRL-3276), 1.25 mM N-Acetyl-L-cysteine (Sigma-Aldrich, cat. A9165), 10 mM nicotinamide (Sigma-Aldrich, cat. N0636), 1X B-27 supplement (Thermo Fisher Scientific, cat. 17504044), 1X N-2 supplement (Thermo Fisher Scientific, cat. 17502048), 10 microM Y-27632 dihydrochloride (Tocris Bioscience, cat. 1254), and 50 ng/mL human EGF recombinant protein (Thermo Fisher Scientific, cat. PHG0311). The 485176-168-R4-J1-PDC line was cultured in Panc media, which includes all 6C/Colon 1B media components plus 100 ng/mL human FGF-10 (Thermo Fisher Scientific, cat. 100-26), 500 nM SB-431542 (Selleckchem, cat. S1067), and gastrin (Tocris, cat. 3006).
[…]

[1] = curve of first compound, second compound 0.0316 µM
[2] = curve of first compound, second compound 0.1 µM
[3] = curve of first compound, second compound 0.316 µM
[4] = curve of first compound, second compound 1 µM
[5] = curve of first compound, second compound 3.16 µM
[6] = curve of first compound, second compound 10 µM
[7] = second compound 0.0316 µM, first compound 0.0316 µM
[8] = second compound 0.0316 µM, first compound 0.1 µM
[9] = second compound 0.0316 µM, first compound 0.316 µM
[10] = second compound 0.0316 µM, first compound 1 µM
[11] = second compound 0.0316 µM, first compound 3.16 µM
[12] = second compound 0.0316 µM, first compound 10 µM
[13] = second compound 0.1 µM, first compound 0.0316 µM
[14] = second compound 0.1 µM, first compound 0.1 µM
[15] = second compound 0.1 µM, first compound 0.316 µM
[16] = second compound 0.1 µM, first compound 1 µM
[17] = second compound 0.1 µM, first compound 3.16 µM
[18] = second compound 0.1 µM, first compound 10 µM
[19] = second compound 0.316 µM, first compound 0.0316 µM
[20] = second compound 0.316 µM, first compound 0.1 µM
[21] = second compound 0.316 µM, first compound 0.316 µM
[22] = second compound 0.316 µM, first compound 1 µM
[23] = second compound 0.316 µM, first compound 3.16 µM
[24] = second compound 0.316 µM, first compound 10 µM
[25] = second compound 1 µM, first compound 0.0316 µM
[26] = second compound 1 µM, first compound 0.1 µM
[27] = second compound 1 µM, first compound 0.316 µM
[28] = second compound 1 µM, first compound 1 µM
[29] = second compound 1 µM, first compound 3.16 µM
[30] = second compound 1 µM, first compound 10 µM
[31] = second compound 3.16 µM, first compound 0.0316 µM
[32] = second compound 3.16 µM, first compound 0.1 µM
[33] = second compound 3.16 µM, first compound 0.316 µM
[34] = second compound 3.16 µM, first compound 1 µM
[35] = second compound 3.16 µM, first compound 3.16 µM
[36] = second compound 3.16 µM, first compound 10 µM
[37] = second compound 10 µM, first compound 0.0316 µM
[38] = second compound 10 µM, first compound 0.1 µM
[39] = second compound 10 µM, first compound 0.316 µM
[40] = second compound 10 µM, first compound 1 µM
[41] = second compound 10 µM, first compound 3.16 µM
[42] = second compound 10 µM, first compound 10 µM
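Also: spheroids exposed to agents for 7 days before readout.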
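For viability, T/C in this document: percent viability relative to DMSO vehicle control taken as 100%.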

COc1cccc2c1C(=O)c1c(O)c3c(c(O)c1C2=O)CC(O)(C(=O)CO)CC3OC1CC(N)C(O)C(C)O1 (stereo not drawn) + CN(C)c1ccc(Nc2c3ccc(NC(=O)CCN4CCCC4)cc3nc3cc(NC(=O)CCN4CCCC4)ccc23)cc1
IC50 [1]: 95.5 nM
IC50 [2]: 94.5 nM
IC50 [3]: 93.4 nM
IC50 [4]: 96.4 nM
IC50 [5]: 91 nM
IC50 [6]: 95.7 nM
viability, T/C [7]: 80.9%
viability, T/C [8]: 39.6%
viability, T/C [9]: 41%
viability, T/C [10]: 10%
viability, T/C [11]: 0.59%
viability, T/C [12]: 0.64%
viability, T/C [13]: 79.7%
viability, T/C [14]: 43.4%
viability, T/C [15]: 35.5%
viability, T/C [16]: 10.1%
viability, T/C [17]: 0.47%
viability, T/C [18]: 0.28%
viability, T/C [19]: 82.7%
viability, T/C [20]: 37.8%
viability, T/C [21]: 40.4%
viability, T/C [22]: 9.85%
viability, T/C [23]: 0.54%
viability, T/C [24]: 0.34%
viability, T/C [25]: 83.1%
viability, T/C [26]: 38.4%
viability, T/C [27]: 40.9%
viability, T/C [28]: 10.8%
viability, T/C [29]: 0.57%
viability, T/C [30]: 0.34%
viability, T/C [31]: 91.9%
viability, T/C [32]: 37.6%
viability, T/C [33]: 33.8%
viability, T/C [34]: 9.5%
viability, T/C [35]: 0.71%
viability, T/C [36]: 0.36%
viability, T/C [37]: 85.8%
viability, T/C [38]: 39%
viability, T/C [39]: 37.6%
viability, T/C [40]: 12.3%
viability, T/C [41]: 1%
viability, T/C [42]: 0.33%

Nc1ccn(C2OC(CO)C(O)C2(F)F)c(=O)n1 (stereo not drawn)
viability, T/C (compound 0.0316 µM): 24.6% and 9.45% and 15.3%
viability, T/C (compound 0.1 µM): 5.55% and 8% and 4.56%
viability, T/C (compound 0.316 µM): 7.44% and 8.2% and 6.55%
viability, T/C (compound 1 µM): 5.74% and 7.67% and 5.48%
viability, T/C (compound 3.16 µM): 6.14% and 6.82% and 5.88%
viability, T/C (compound 10 µM): 3.68% and 3.93% and 3.72%
IC50 (curve of compound): < 31.6 nM

Cc1cnc(CNC(=O)c2c(=O)c3ccc(N4CCCN(C)CC4)nc3n3c2sc2ccccc23)cn1
viability, T/C (compound 0.0316 µM): 90.4% [middle of 12 runs]
viability, T/C (compound 0.1 µM): 39.5% [middle of 12 runs]
viability, T/C (compound 0.316 µM): 29.2% [middle of 12 runs]
viability, T/C (compound 1 µM): 23.6% [middle of 12 runs]
viability, T/C (compound 3.16 µM): 15.9% [middle of 12 runs]
viability, T/C (compound 10 µM): 0.15% [middle of 8 runs]
IC50 (compound alone, run of 02/20/2024): 85.8 nM [middle of 11 runs]

COc1ncnc(C2CC2)c1-c1ncc2cnn(Cc3ccc(-c4nc(C(F)(F)F)cn4C(C)C)cc3)c2n1 + CN(C)c1ccc(Nc2c3ccc(NC(=O)CCN4CCCC4)cc3nc3cc(NC(=O)CCN4CCCC4)ccc23)cc1
IC50 [1]: > 10000 nM
IC50 [2]: > 10000 nM
IC50 [3]: > 10000 nM
IC50 [4]: > 10000 nM
IC50 [5]: > 10000 nM
IC50 [6]: 4430 nM
viability, T/C [7]: 102%
viability, T/C [8]: 119%
viability, T/C [9]: 106%
viability, T/C [10]: 107%
viability, T/C [11]: 108%
viability, T/C [12]: 115%
viability, T/C [13]: 100%
viability, T/C [14]: 123%
viability, T/C [15]: 104%
viability, T/C [16]: 105%
viability, T/C [17]: 111%
viability, T/C [18]: 114%
viability, T/C [19]: 100%
viability, T/C [20]: 118%
viability, T/C [21]: 102%
viability, T/C [22]: 107%
viability, T/C [23]: 105%
viability, T/C [24]: 119%
viability, T/C [25]: 107%
viability, T/C [26]: 112%
viability, T/C [27]: 115%
viability, T/C [28]: 104%
viability, T/C [29]: 104%
viability, T/C [30]: 114%
viability, T/C [31]: 106%
viability, T/C [32]: 103%
viability, T/C [33]: 100%
viability, T/C [34]: 93.2%
viability, T/C [35]: 103%
viability, T/C [36]: 97.5%
viability, T/C [37]: 114%
viability, T/C [38]: 108%
viability, T/C [39]: 91.6%
viability, T/C [40]: 95.3%
viability, T/C [41]: 53.8%
viability, T/C [42]: 31.1%
